Source: patent US8822517B2, “Arylosulfonamides for the treatment of CNS diseases” (Adamed SP. Z O.O., priority 2010, dated 2014)

What was measured:
[1] = molecular target: T1, serotonine transporter (SERT) receptor (Homo sapiens, UniProt P31645); experiment: Binding assay SERT (h), [3H]imipramine, CHO cells; conditions: read-out: SERT [%]
T1 construct: expressed in transfected cells; host or cells: CHO cells
In short: (§1)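 Detection relied on scintillation counting of bound ligand. Compounds at 1×10^−6 M were evaluated against specific binding, i.e. total binding corrected for the nonspecific fraction seen with excess unlabelled ligand.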

[2] = tested on: adrenergic α1 receptor; experiment: Binding assay α1 (non-selective), [3H]prazosin, rat cerebral cortex; conditions: percent inhibition of control specific binding; compounds tested at 1×10^−6 M
In short: as §1

[3] = molecular target: dopaminergic D3 receptor (Homo sapiens, UniProt P35462); experiment: Binding assay D3 (h), [3H]methyl-spiperone, CHO cells; set-up: expressed in transfected cells; host or cells: CHO cells; conditions: read-out: D3 [%]
dopaminergic D3 receptor, sequence (P35462 whole entry): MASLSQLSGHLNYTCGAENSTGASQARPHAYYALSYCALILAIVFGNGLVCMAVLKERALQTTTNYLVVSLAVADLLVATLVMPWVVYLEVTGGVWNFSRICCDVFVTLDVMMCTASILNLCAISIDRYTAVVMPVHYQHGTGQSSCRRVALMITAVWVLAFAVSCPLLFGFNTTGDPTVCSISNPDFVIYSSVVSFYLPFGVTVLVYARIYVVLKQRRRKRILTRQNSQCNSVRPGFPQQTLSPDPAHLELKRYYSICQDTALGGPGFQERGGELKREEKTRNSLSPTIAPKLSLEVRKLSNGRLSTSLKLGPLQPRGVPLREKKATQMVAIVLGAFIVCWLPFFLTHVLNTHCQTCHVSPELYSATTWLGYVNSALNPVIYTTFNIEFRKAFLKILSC
In short: as §1

[4] = molecular target: serotoninergic 5-HT6 receptor (Homo sapiens, UniProt P50406); experiment: Binding assay 5-HT6 (h), [3H]LSD, CHO cells; set-up: expressed in transfected cells; host or cells: CHO cells; conditions: read-out: 5-HT6
serotoninergic 5-HT6 receptor, sequence (P50406 whole entry): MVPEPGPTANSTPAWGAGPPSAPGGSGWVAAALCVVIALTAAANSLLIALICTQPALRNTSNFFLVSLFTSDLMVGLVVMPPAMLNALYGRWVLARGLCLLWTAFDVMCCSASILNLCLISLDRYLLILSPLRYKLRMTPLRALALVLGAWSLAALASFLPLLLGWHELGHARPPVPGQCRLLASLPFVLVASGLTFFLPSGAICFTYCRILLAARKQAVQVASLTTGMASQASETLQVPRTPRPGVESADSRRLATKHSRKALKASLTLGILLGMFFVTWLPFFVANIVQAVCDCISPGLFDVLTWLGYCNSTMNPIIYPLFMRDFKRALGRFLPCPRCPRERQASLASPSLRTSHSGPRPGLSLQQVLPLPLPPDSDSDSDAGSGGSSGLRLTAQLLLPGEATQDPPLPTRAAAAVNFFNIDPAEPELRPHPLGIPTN
In short: as §1

[5] = molecular target: serotoninergic 5-HT7 receptor (Homo sapiens, UniProt P34969); experiment: Binding assay 5-HT7 (h), [3H]LSD, CHO cells; set-up: expressed in transfected cells; host or cells: CHO cells; conditions: read-out: 5-HT7
serotoninergic 5-HT7 receptor, sequence (P34969 whole entry): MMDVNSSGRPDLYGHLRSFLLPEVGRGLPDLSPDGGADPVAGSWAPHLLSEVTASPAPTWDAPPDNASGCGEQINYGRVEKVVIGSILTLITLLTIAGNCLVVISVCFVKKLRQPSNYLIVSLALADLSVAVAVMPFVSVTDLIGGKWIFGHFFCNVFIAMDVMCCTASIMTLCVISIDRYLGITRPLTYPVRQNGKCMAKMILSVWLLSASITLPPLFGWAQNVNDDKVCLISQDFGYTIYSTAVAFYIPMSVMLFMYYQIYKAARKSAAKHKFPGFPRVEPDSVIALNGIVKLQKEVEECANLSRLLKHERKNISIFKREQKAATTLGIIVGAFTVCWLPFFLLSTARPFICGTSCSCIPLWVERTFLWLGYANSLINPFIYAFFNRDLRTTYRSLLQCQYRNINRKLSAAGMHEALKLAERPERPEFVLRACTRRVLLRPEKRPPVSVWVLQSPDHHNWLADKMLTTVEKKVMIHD
In short: as §1

[6] = molecular target: dopaminergic D2 receptor (Homo sapiens, UniProt P14416); experiment: Binding assay D2S (h), [3H]methyl-spiperone, HEK-293 cells; set-up: expressed in transfected cells; host or cells: HEK-293 cells; conditions: read-out: D2 [%]
dopaminergic D2 receptor, sequence (P14416 1-414 isoform P14416-2): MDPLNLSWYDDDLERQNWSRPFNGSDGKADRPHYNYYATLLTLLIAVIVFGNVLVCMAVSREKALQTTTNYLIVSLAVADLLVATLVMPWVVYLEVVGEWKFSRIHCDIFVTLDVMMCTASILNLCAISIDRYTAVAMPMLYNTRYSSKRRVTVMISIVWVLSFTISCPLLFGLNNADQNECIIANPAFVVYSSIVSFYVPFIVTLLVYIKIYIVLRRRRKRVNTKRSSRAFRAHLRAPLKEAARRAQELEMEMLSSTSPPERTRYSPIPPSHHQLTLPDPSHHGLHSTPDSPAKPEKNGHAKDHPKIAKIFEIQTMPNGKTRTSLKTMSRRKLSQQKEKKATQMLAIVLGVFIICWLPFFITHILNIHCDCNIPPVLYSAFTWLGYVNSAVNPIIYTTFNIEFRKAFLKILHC
In short: as §1

[7] = molecular target: T2, serotoninergic 5-HT1A receptor (Homo sapiens, UniProt P08908); experiment: Binding assay 5-HT1A (h), [3H]8-OH-DPAT, HEK-293 cells; set-up: expressed in transfected cells; host or cells: HEK-293 cells; conditions: read-out: 5-HT1A
T2 sequence (P08908 1-422): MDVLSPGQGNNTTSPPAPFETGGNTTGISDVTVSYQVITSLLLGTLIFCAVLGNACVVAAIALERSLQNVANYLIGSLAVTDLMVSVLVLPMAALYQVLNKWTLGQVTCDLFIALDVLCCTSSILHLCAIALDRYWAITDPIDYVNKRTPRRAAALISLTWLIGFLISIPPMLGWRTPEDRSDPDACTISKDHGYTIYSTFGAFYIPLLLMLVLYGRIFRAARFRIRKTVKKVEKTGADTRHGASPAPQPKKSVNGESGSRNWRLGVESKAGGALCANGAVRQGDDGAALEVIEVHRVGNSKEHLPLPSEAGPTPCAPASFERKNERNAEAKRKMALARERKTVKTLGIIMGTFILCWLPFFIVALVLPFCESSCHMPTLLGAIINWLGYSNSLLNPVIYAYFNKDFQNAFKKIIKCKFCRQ
In short: as §1

[8] = molecular target: serotoninergic 5-HT2A receptor (Homo sapiens, UniProt P28223); experiment: Binding assay 5-HT2A (h), [3H]ketanserin, HEK-293 cells; set-up: expressed in transfected cells; host or cells: HEK-293 cells; conditions: read-out: 5-HT2A
serotoninergic 5-HT2A receptor, sequence (P28223 whole entry): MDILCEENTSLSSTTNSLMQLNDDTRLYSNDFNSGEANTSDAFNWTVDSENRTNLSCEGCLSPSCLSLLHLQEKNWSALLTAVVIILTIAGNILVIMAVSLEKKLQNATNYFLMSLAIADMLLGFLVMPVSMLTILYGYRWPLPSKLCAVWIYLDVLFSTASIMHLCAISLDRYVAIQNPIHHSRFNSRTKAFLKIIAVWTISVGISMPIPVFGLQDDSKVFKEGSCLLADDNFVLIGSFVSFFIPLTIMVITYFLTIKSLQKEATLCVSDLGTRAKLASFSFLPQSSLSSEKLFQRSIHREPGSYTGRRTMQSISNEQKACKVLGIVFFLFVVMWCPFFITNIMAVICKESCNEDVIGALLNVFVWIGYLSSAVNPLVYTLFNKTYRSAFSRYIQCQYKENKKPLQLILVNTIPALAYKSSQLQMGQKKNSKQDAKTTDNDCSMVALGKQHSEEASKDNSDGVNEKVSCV
In short: as §1

T1 sequence (P31645 whole entry): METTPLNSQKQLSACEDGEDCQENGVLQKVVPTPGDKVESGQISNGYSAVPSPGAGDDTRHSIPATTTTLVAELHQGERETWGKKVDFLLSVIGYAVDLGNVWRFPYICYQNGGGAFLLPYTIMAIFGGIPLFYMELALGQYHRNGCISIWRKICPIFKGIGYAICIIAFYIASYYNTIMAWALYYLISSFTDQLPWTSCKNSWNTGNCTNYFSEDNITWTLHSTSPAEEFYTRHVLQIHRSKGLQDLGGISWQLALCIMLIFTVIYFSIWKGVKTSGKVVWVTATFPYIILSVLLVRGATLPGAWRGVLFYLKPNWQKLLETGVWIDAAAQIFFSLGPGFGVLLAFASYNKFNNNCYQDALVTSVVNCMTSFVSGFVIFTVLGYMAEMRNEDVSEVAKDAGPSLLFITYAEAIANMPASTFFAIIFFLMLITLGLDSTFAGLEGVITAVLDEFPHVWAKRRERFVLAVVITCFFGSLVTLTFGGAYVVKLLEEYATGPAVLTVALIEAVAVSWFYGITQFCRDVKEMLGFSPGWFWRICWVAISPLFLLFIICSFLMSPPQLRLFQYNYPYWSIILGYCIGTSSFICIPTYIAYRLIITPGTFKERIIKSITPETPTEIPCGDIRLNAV

Compound	inhibition at 1 µM [1]	α1 [%] [2]	inhibition at 1 µM [3]	inhibition at 1 µM [4]	inhibition at 1 µM [5]	inhibition at 1 µM [6]	inhibition at 1 µM [7]	inhibition at 1 µM [8]
Cn1ccc2c(S(=O)(=O)NCCCN3CCC(c4noc5cc(F)ccc45)CC3)cccc21 [Compound 343, N-[3-[4-(6-Fluoro-1,2-benzoxazol-3-yl)piperidin-1-yl]propyl]-1-methyl-indole-4-sulphonamide]	4%	86%	96%	77%	92%	101%	32%	105%
Cn1ccc2cc(S(=O)(=O)NCCCN3CCC(c4noc5cc(F)ccc45)CC3)ccc21 [Compound 344, N-[3-[4-(6-Fluoro-1,2-benzoxazol-3-yl)piperidin-1-yl]propyl]-1-methyl-indole-5-sulphonamide]	31%	106%	101%	91%	95%	107%	42%	105%
O=S(=O)(NCCCN1CCC(c2noc3cc(F)ccc23)CC1)c1cc2ccccc2s1 [Compound 345, N-[3-[4-(6-Fluoro-1,2-benzoxazol-3-yl)piperidin-1-yl]propyl]benzothiophene-2-sulphonamide]	-10%	102%	100%	91%	91%	109%	45%	93%
O=S(=O)(NCCCN1CCC(c2noc3cc(F)ccc23)CC1)c1csc2ccccc12 [Compound 346, N-[3-[4-(6-Fluoro-1,2-benzoxazol-3-yl)piperidin-1-yl]propyl]benzothiophene-3-sulphonamide]	17%	103%	93%	95%	87%	100%	51%	97%
O=S(=O)(NCCCN1CCC(c2noc3cc(F)ccc23)CC1)c1cc2ccccc2o1 [Compound 349, N-[3-[4-(6-Fluoro-1,2-benzoxazol-3-yl)piperidin-1-yl]propyl]benzofuran-2-sulphonamide]	0%	98%	100%	87%	91%	93%	49%	108%
O=S(=O)(NCCCN1CCC(c2noc3cc(F)ccc23)CC1)c1ccc2c(c1)CCO2 [Compound 350, N-[3-[4-(6-Fluoro-1,2-benzoxazol-3-yl)piperidin-1-yl]propyl]-2,3-dihydrobenzofuran-5-sulphonamide]	-5%	102%	95%	96%	87%	102%	57%	95%
O=S(=O)(NCCCN1CCC(c2noc3cc(F)ccc23)CC1)c1cccc2scnc12 [Compound 351, N-[3-[4-(6-Fluoro-1,2-benzoxazol-3-yl)piperidin-1-yl]propyl]-1,3-benzothiazole-4-sulphonamide]	31%	97%	103%	89%	94%	101%	71%	103%
O=c1[nH]c2ccc(S(=O)(=O)NCCCN3CCC(c4noc5cc(F)ccc45)CC3)cc2o1 [Compound 353, N-[3-[4-(6-Fluoro-1,2-benzoxazol-3-yl)piperidin-1-yl]propyl]-2-oxo-3H-1,3-benzoxazole-6-sulphonamide]	-1%	103%	97%	58%	83%	91%	48%	101%
O=S(=O)(NCCCN1CCC(c2noc3cc(F)ccc23)CC1)c1ccc2c(c1)OCO2 [Compound 354, N-[3-[4-(6-Fluoro-1,2-benzoxazol-3-yl)piperidin-1-yl]propyl]-1,3-benzodioxole-5-sulphonamide]	6%	103%	88%	86%	96%	83%	59%	86%
O=S(=O)(NCCCN1CCC(c2noc3cc(F)ccc23)CC1)c1ccc2c(c1)OCCO2 [Compound 355, N-[3-[4-(6-Fluoro-1,2-benzoxazol-3-yl)piperidin-1-yl]propyl]-2,3-dihydro-1,4-benzodioxine-6-sulphonamide]	45%	105%	97%	75%	84%	99%	60%	103%
O=S(=O)(NCCCCN1CCN(c2cccc3[nH]ccc23)CC1)c1cccc(C(F)(F)F)c1 [Compound 361, N-[4-[4-(1H-Indol-4-yl)piperazin-1-yl]butyl]-3-(trifluoromethyl)benzenesulphonamide]	6%	98%	98%	70%	86%	99%	95%	49%
N#Cc1cccc(S(=O)(=O)NCCCCN2CCN(c3cccc4[nH]ccc34)CC2)c1 [Compound 362, 3-Cyano-N-[4-[4-(1H-indol-4-yl)piperazin-1-yl]butyl]benzenesulphonamide]	37%	96%	102%	69%	88%	101%	91%	41%
Cc1c(S(=O)(=O)NCCCCN2CCN(c3cccc4[nH]ccc34)CC2)sc2ccc(F)cc12 [Compound 364, 5-Fluoro-N-[4-[4-(1H-indol-4-yl)piperazin-1-yl]butyl]-3-methylbenzothiophene-2-sulphonamide]	35%	87%	100%	80%	91%	100%	92%	89%
Cc1[nH]c2ccc(Cl)cc2c1C1=CCN(CCCCNS(=O)(=O)c2cccc3ccccc23)CC1 [Compound 366, N-[4-[4-(5-Chloro-2-methyl-1H-indol-3-yl)-3,6-dihydro-2H-pyridin-1-yl]butyl]-naphthalene-1-sulphonamide]	8%	8%	81%	98%	53%	54%	34%	49%
Cc1[nH]c2ccc(Cl)cc2c1C1=CCN(CCCCNS(=O)(=O)c2cccc(O)c2)CC1 [Compound 369, N-[4-[4-(5-Chloro-2-methyl-1H-indol-3-yl)-3,6-dihydro-2H-pyridin-1-yl]butyl]-3-hydroxybenzenesulphonamide]	29%	50%	97%	99%	7%	67%	62%	79%
O=S(=O)(NCCCCN1CCN(c2cccc3c2OCCO3)CC1)c1cccc2ccccc12 [Compound 385, N-[4-[4-(2,3-Dihydro-1,4-benzodioxin-5-yl)piperazin-1-yl]butyl]naphthalene-1-sulphonamide]	6%	96%	89%	10%	99%	75%	103%	77%
O=S(=O)(NCCCCN1CCN(c2cccc3c2OCCO3)CC1)c1ccc2ccccc2c1 [Compound 386, N-[4-[4-(2,3-Dihydro-1,4-benzodioxin-5-yl)piperazin-1-yl]butyl]naphthalene-2-sulphonamide]	-5%	96%	88%	1%	82%	70%	96%	65%
